# Laboratory results from patent publication US12370198B2, “Pharmaceutical compositions and methods for treating psychiatric disorders” (LA PHARMATECH INC., priority 2022, dated 2025).
# Experiments:
# [1] = test system: generalized anxiety disorder (GAD); test: Clinical case treatment of patients with generalized anxiety disorder; assay type: in vivo, human; conditions: for improvement of GAD reported by patient: Example 1, person
# Protocol: A patient was diagnosed with generalized anxiety disorder (GAD) and they had no complaints of having insomnia. […] Then they were treated with the combination of ebastine (20 mg) and alprazolam (1 mg) for 2 weeks. […] The inventors believe the composition of two mechanisms of actions provided a new solution for treating their GAD which could not be treated with alprazolam and the like alone.
# A patient with no insomnia symptom order was diagnosed with GAD. The patient was treated with alprazolam (2 mg) for 2 weeks from their first clinic visit and alprazolam (4 mg) for 2 weeks from their second clinic visit. […] On the third clinic visit, the patient was prescribed with the combination of ebastine (10 mg) and alprazolam (4 mg). […] The inventors believe that the two compositions of two mechanisms of actions provided a new solution for treating their […] which could not be treated with other options.
# [2] = test system: major depressive disorder (MDD); test: Clinical case treatment of patients with major depressive disorder; assay type: in vivo, human; conditions: for improvement of MDD: alprazolam 5 mg for 2 weeks; for outcome of previous anti-depressant treatment of MDD: Example 2, person; for outcome of previous anti-depressant treatment of MDD / outcome of previous treatments of MDD symptoms: previous treatments; for outcome of previous treatments of MDD symptoms: Example 4, person
# Protocol: A patient having no insomnia symptom was diagnosed with major depressive disorder (MDD) showing persistent sadness, loneliness, helpless, and hapless. […] Then they were prescribed with a combination of ebastine (30 mg) and alprazolam (5 mg) for 4 weeks.
# A patient with no insomnia symptom was diagnosed with major depressive disorder (MDD) with persistent sadness, lack of interest, and feeling lonely. […] Then they were treated with a combination of ebastine (30 mg) and alprazolam (0.5 mg) for 4 weeks from the second clinic visits.
# [3] = test system: mild chronic depression (MCD); test: Clinical case treatment of a patient with mild chronic depression; assay type: in vivo, human; conditions: Example 3
# Protocol: The patient was prescribed with ebastine 30 mg for 3 weeks from the first clinic visit. […] Then they were prescribed with a combination of ebastine (10 mg) and alprazolam (0.5 mg) for a 4-week treatment.
# [4] = test system: premenstrual dysphoric disorder (PDD); test: Clinical case treatment of a patient with premenstrual dysphoric disorder; assay type: in vivo, human
# Protocol: A patient with no insomnia symptom was diagnosed with premenstrual dysphoric disorder (PDD) with symptoms of persistent hopelessness, sadness, anxiety and frequent tearfulness on the first clinic visit and was provided with fluoxetine 40 mg for 3 weeks. […] Then the patient was prescribed with the combination of ebastine (20 mg) and alprazolam (2 mg) for 2 weeks.
# REM sleep = conditions: background studies; cited from earlier work
# [5] = test system: release of prostaglandin D2 (PGD2) and leukotrienes C4/D4 (LTC4/D4); conditions: background statement; cited from earlier work
# allergic rhinitis = test: Clinical case treatment of allergic rhinitis; assay type: in vivo, human; conditions: Example 3, person; ebastine 30 mg for 3 weeks
# Protocol: A patient with no insomnia symptom was having allergic rhinitis with itchy nose, mouth and eyes, frequent sneezing, watery eyes and coughing, and runny nose when they were diagnosed with mild chronic depression (MCD) but showing symptoms of sadness, lack of interest, loneliness and helpless, consistent frustration for 4 weeks with failed treatment history of allergic rhinitis. The patient was prescribed with ebastine 30 mg for 3 weeks from the first clinic visit. […] But their symptoms from MCD were persistent. […] Then they were prescribed with a combination of ebastine (10 mg) and alprazolam (0.5 mg) for a 4-week treatment.
# [6] = test system: release of cytokines (GM-CSF, tumour necrosis factor-a, interleukin-8); conditions: background statement; cited from earlier work
smiles,measurement,setting,value
"Cc1nnc2n1-c1ccc(Cl)cc1C(c1ccccc1)=NC2 [alprazolam, 8-chloro-1-methyl-6-phenyl-4H-s-triazolo[4,3-a][1,4]benzodiazepine]",improvement of GAD reported by patient,[1]; alprazolam 0.5 mg for 2 weeks,no improvement
same,improvement of GAD reported by patient,[1]; alprazolam 2 mg for 2 weeks,no improvement
same,"improvement of GAD symptoms (anxiety, agitation, sweating, nausea, headaches)","[1]; Example 5, person, alprazolam (2 mg) for 2 weeks",failed to improve
same,"improvement of GAD symptoms (anxiety, agitation, sweating, nausea, headaches)","[1]; Example 5, alprazolam (4 mg) for 2 weeks",failed to improve
same,improvement of MDD,[2]; Example 2,no improvement
same,improvement of MDD,[2]; Example 4,20%
same,improvement of MCD symptoms,[3]; alprazolam 1 mg for 3 weeks,no improvement
same,improvement of PDD symptoms,"[4]; Example 6, alprazolam (2 mg) for 2 weeks",failed to improve
same,REM latency,REM sleep,increases
same,length of REM periods and frequency of REM burst activities,REM sleep,significantly decreases
CC(NC(C)(C)C)C(=O)c1cccc(Cl)c1 (centres unmarked) [bupropion],outcome of previous anti-depressant treatment of MDD,[2],failed
same,outcome of previous treatments of MDD symptoms,[2],failed to improve
CC(C)(C(=O)O)c1ccc(C(=O)CCCN2CCC(OC(c3ccccc3)c3ccccc3)CC2)cc1 [carebastine],release of PGD2,[5],inhibits
CNCC[C@H](Oc1cccc2ccccc12)c1cccs1 [duloxetine],outcome of previous anti-depressant treatment of MDD,[2],failed
"CC(C)(C)c1ccc(C(=O)CCCN2CCC(OC(c3ccccc3)c3ccccc3)CC2)cc1 [ebastine, 4-diphenylmethoxy-1-[3-(4-tert-butylbenzoyl)-propyl]piperidine]",symptoms from MCD,[3]; ebastine 30 mg for 3 weeks,persistent
same,recovery from allergic rhinitis,allergic rhinitis,complete recovery
same,anti-IgE-induced release of prostaglandin D2 (PGD2) and leukotrienes C4/D4 (LTC4/D4),[5],significantly inhibits
same,"release of cytokines, including GM-CSF, tumour necrosis factor-a and interleukin-8",[6],inhibited
CNCCC(Oc1ccc(C(F)(F)F)cc1)c1ccccc1 (centres unmarked) [fluoxetine],outcome of previous treatments of MDD symptoms,[2],failed to improve
same,improvement of PDD symptoms,"[4]; Example 6, person, fluoxetine 40 mg for 3 weeks",no improvement
